Test results reported in PubChem BioAssay (NCI).
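Tested at 5 concentrations; 48 h exposure; 96-well plates; endpoints linearly interpolated, else capped at highest concentration. Definition used: TGI = concentration required for complete inhibition of growth.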

Experiments:
Test in all cases: NCI anticancer screen, dose series, 48 h
[1] = tested on: OVCAR-5 ovarian
[2] = tested on: SK-MEL-28 melanoma
[3] = tested on: SF-295 CNS
[4] = tested on: OVCAR-3 ovarian
[5] = tested on: XF 498 CNS
[6] = tested on: K-562 leukemia
[7] = tested on: HCT-15 colon
[8] = tested on: EKVX NSCLC
[9] = tested on: SW-620 colon
[10] = tested on: M19-MEL melanoma
[11] = tested on: HOP-92 NSCLC
[12] = tested on: SK-MEL-5 melanoma
[13] = tested on: NCI-H226 lung
[14] = tested on: SNB-19 CNS
[15] = tested on: UACC-62 melanoma
[16] = tested on: HT29 colon
[17] = tested on: HCC-2998 colon
[18] = tested on: NCI-H522 lung
[19] = tested on: CCRF-CEM leukemia
[20] = tested on: 786-0 renal
[21] = tested on: U251 CNS
[22] = tested on: SR leukemia
[23] = tested on: COLO 205 colon
[24] = tested on: HCT-116 colon
[25] = tested on: TK-10 renal
[26] = tested on: SK-MEL-2 melanoma
[27] = tested on: MOLT-4 leukemia
[28] = tested on: DMS 114 small cell lung
[29] = tested on: IGROV1 ovarian
[30] = tested on: M14 melanoma
[31] = tested on: HOP-18 NSCLC
[32] = tested on: HL-60(TB) leukemia
[33] = tested on: HOP-62 NSCLC
[34] = tested on: NCI-H23 lung
[35] = tested on: LOX IMVI melanoma
[36] = tested on: RPMI-8226 leukemia
[37] = tested on: LXFL 529 NSCLC
[38] = tested on: OVCAR-8 ovarian
[39] = tested on: SNB-75 CNS
[40] = tested on: A498 renal
[41] = tested on: MALME-3M melanoma
[42] = tested on: KM12 colon
[43] = tested on: RXF-631 renal
[44] = tested on: UACC-257 melanoma
[45] = tested on: SF-268 CNS
[46] = tested on: A549 NSCLC
[47] = tested on: UO-31 renal
[48] = tested on: ACHN renal
[49] = tested on: SK-OV-3 ovarian
[50] = tested on: NCI-H460 lung
[51] = tested on: DLD-1 colon
[52] = tested on: SF-539 CNS
[53] = tested on: RXF 393 renal
[54] = tested on: SN12C renal
[55] = tested on: KM20L2 colon
[56] = tested on: CAKI-1 renal
[57] = tested on: SNB-78 CNS
[58] = tested on: DMS 273 small cell lung
[59] = tested on: OVCAR-4 ovarian

Measured: TGI

CCOC(=O)NC(=O)c1cn(CCN2CCN(c3ncnc4nc[nH]c34)CC2)c(=O)[nH]c1=O
not listed: [56] | [57] | [58] | [59]
> 100 µM: all other assays above

COc1ccc(C2N(NC(=O)c3ccncc3)C(=O)CS2(=O)=O)cc1F (stereo not drawn)
not listed: [4] | [6] | [8] | [10] | [15] | [20] | [29] | [38] | [47] | [52] | [55]
> 100 µM: all other assays above
